The source of these data is US11787800B2, “BRD9 degraders and uses thereof” (Foghorn Therapeutics Inc., priority 2020, dated 2023).

Common to all, as to format: cell-based
For assay [1], the system named is non-synovial control cancer cell lines (RD, HCT116, and Calu6). The experiment in a line: Crystal violet growth assay, day 14, non-synovial control cancer cell lines, Example 4. To be noted: daily treatment, day 14, crystal violet, FIGS. 8 and 9. The protocol: (§1) Procedure: Cells were seeded into 6-well or 12-well plates and were treated daily with a BRD9 degrader (Compound 1), a bromo-domain BRD9 binder (Compound 2), E3 ligase binder (lenalidomide), DMSO, or staurosporin (positive control for cell killing), at indicated concentrations. The number of cells was optimized for each cell line. Growth media was refreshed every 5 days. By day 14, medium was removed, cells were washed with PBS, and stained using 500 μL of 0.005% (w/v) crystal violet solution in 25% (v/v) methanol for at least 1 hour at room temperature. Subsequently plates were scanned on an Odyssey CLx Imaging system.

In assay [2] the test system is SYO1 cells. The experiment in a line: Cell cycle analysis, Click-iT Plus EdU Flow Cytometry Assay. To be noted: 200 nM or 1 μM, 8 or 13 days, compared to DMSO and lenalidomide. The protocol:
(§2) Compounds were refreshed every 5 days. Cell cycle analysis was performed using the Click-iT™ Plus EdU Flow Cytometry Assay (Invitrogen). The apoptosis assay was performed using the Annexin V-FITC Apoptosis Detection Kit (Sigma A9210). Assays were performed according to the manufacturer's protocol.

Assay [3] relates to synovial sarcoma cell lines (SYO1, HS-SY-II, and ASKA). The experiment in a line: Crystal violet growth assay, day 14, synovial sarcoma cell lines, Example 4. The note with it: for growth of synovial sarcoma cell lines: SYO1, HS-SY-II, ASKA, daily treatment, day 14, crystal violet, FIGS. 8 and 9. As for the experimental part: as §1
Assay [4] concerns synovial sarcoma cell lines (SYO1, Yamato, HS-SY-II, and ASKA). The experiment in a line: Growth of synovial sarcoma cell lines (IncuCyte confluency, crystal violet staining, colony imaging), Example 3. The note with it: FIGS. 5, 6, 7, 1 μM in crystal violet assay. The protocol: (§3) Growth medium and compounds were refreshed every 3-4 days.
(§4) The number of cells was optimized for each cell line. Growth medium and compounds were refreshed every 3-5 days. SYO1, Yamato, A549, 293T and HS-SY-II cells were fixed and stained at day 11. ASKA cells were fixed and stained at day 23. Staining was done by incubation with crystal violet solution (0.5 g Crystal Violet, 27 ml 37% Formaldehyde, 100 mL 10×PBS, 10 mL Methanol, 863 dH20 to 1 L) for 30 min followed by 3× washes with water and drying the plates for at least 24 h at room temperature. Subsequently plates were scanned on an Odyssey CLx Imaging system (FIG. 6).
(§5) Cells were seeded into 96-well ultra low cluster plate (Costar, #7007) in 200 μL complete media and treated at day 2 with DMSO, Staurosporin, or BRD9 degarder, Compound 1, at indicated doses (FIG. 7). Media and compounds were changed every 5 d and cell colonies were imaged at day 14.

The test system of assay [5] is non-synovial control cancer cell lines (293T, A549, G401). The experiment in a line: Growth of non-synovial control cancer cell lines, Example 3. To be noted: FIGS. 5, 6, 7. As for the experimental part:
as §3, §4, §5

Assay [6] deals with SYO1 cells. The experiment in a line: Apoptosis assay, Annexin V-FITC Apoptosis Detection Kit. To be noted: 200 nM or 1 μM, 8 days, compared to DMSO controls. The protocol: as §2

In the case of `COc1cc(-c2cn(C)c(=O)c3cnccc23)cc(OC)c1CN(C)CC(=O)NCCOCCOCCNc1cccc2c1C(=O)N(C1CCC(=O)NC1=O)C2=O` (centres unmarked) [Compound A], the “growth of non-synovial control cancer cell lines” value is listed as “did not result in inhibition of the growth” in assay [1] and “does not result in inhibition of the growth” in assay [5]. Also, the “numbers of cells in the S-phase of the cell cycle” value in the assay with SYO1 cells [2] is on record as “reduced numbers of cells in the S-phase”. In addition, the “growth of synovial sarcoma cell lines” value in assay [3] and in assay [4] was “inhibition of the growth of the cells” each time. The “growth inhibition compared among the test agents” value in assay [3] (all synovial cell lines) was “most significant growth inhibition”. Besides, in the assay with SYO1 cells [6], the “numbers of early- and late-apoptotic cells” value is “increased numbers of early- and late-apoptotic cells”.

For the molecule `COc1cc(-c2cn(C)c(=O)c3cnccc23)cc(OC)c1CN(C)C` [Compound B], the “growth of non-synovial control cancer cell lines” value was “did not result in inhibition of the growth” in assay [1] and “does not result in inhibition of the growth” in assay [5]. Moreover, the “growth of synovial sarcoma cell lines” value in assay [3] and in assay [4] was “inhibition of the growth of the cells” throughout.
